The test system of this assay is 30 clinical strains of M. tuberculosis isolated from patients in Thailand. Description: Microplate Alamar Blue assay, clinical strains. It counts as cell-based. The note with it: Mycobacterium tuberculosis, including isoniazid and/or rifampin resistant strains, read-out: MICs against clinical strains of M. tuberculosis. In general terms: Alamar Blue is a resazurin reagent that responds to reducing activity.

As for `C=CC(OC(C)=O)c1ccc(OC(C)=O)cc1` (stereo not shown) [1′-acetoxychavicol acetate, 1′-Acetoxychavicol acetate], the MIC fell in the range of 0.1 to 0.5 µg/mL.
